Experimental data as given in US9879050B2, “Substituted urea depsipeptide analogs as activators of the CLPP endopeptidase” (priority 2013, dated 2018).
≈ marks a conversion by molar mass, not a printed value. Like-named read-outs stand apart in the source and are kept apart here.

Tests used:
E. coli K12ΔtolC = experiment: Minimal inhibitory concentration, microbroth dilution; type: cell-based
Outline: (§1)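 Growth inhibition was scored visually after overnight aerobic culture at 37 °C in CLSI-style microdilution plates. Inocula contained about 10^5 cfu/mL, and compound concentrations descended in twofold steps from 200 μM.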

S. aureus USA 300 ΔClpP = experiment: as above; type: cell-based, Staphylococcus aureus; conditions: ClpP inactivated strain
Outline: as §1

Sa-ClpP [1] = target: T1, Sa-ClpP (Staphylococcus aureus, UniProt Q2G036); experiment: ADEP displacement fluorescence polarization assay; type: binding, S. aureus; conditions: 1 μM Sa-ClpP, 50 nM FP probe ADEP 2591; read-out: ADEP Displacement IC50
T1 construct: made in house; host or cells: E. coli BL21 (DE3)
Outline: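 Displacement of TAMRA-labelled ADEP 2591 probe (50 nM) from 1 μM Sa-ClpP, pre-equilibrated 1 h in Tris·HCl pH 8.0 with 2% DMSO, then 120 min at room temperature with compound, triplicate. Polarization (mP) read ex 530/em 579 nm, normalised to 20 μM ADEP 2378 and DMSO controls; four-parameter fit.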

S. pneumoniae DAW27 = experiment: Minimal inhibitory concentration, microbroth dilution; type: cell-based
Outline: as §1

S. aureus ATCC 29213 = experiment: as above; type: cell-based
Outline: as §1

E. faecails ATCC 33186 = experiment: as above; type: cell-based; conditions: Enterococcus faecalis, ATCC33186, read-out: Minimal Inhibitory Concentration E. faecails ATCC 33186
Outline: as §1

B. subtilis ATCC 23857 = experiment: as above; type: cell-based
Outline: as §1

S. aureus ClpP (Sa-ClpP) = target: T2, S. aureus ClpP (Sa-ClpP) (Staphylococcus aureus, UniProt Q2G036); experiment: ClpP activation, casein-BODIPY digestion assay (first described method); type: biochemical; conditions: first described ClpP activation assay (**); 10 μM saClpP, 25 μg/ml BODIPY FL casein, 37° C.; read-out: ClpP Activation EC50
T2 construct: made in house; host or cells: E. coli BL21 (DE3)
Method: The compounds were assayed in a casein digestion assay in order to determine their effect on ClpP activation. Briefly, the assay was carried out using S. aureus ClpP (“Sa-ClpP”) overexpressed in E. coli BL21 (DE3) and purified in a two-step process. Purity of the protein was assessed through SDS PAGE analysis. EC50 evaluations were conducted in triplicate in a 20 μl assay format using a method adapted from Maurizi et al. (Methods Enzymol. (1994) 244:314-331.). Each well contained 10 μM saClpP, 25 μg/ml BODIPY FL casein (Invitrogen Corporation, San Diego, Calif.), and test compound in concentrations ranging between 0-100 μM in assay buffer (50 mM Tris pH 8, 200 mM KCl, and 1 mM TCEP). The reaction took place at 37° C. Fluorescence (excitation 485 nm; emission 528 nm) was measured in five minute intervals over a 45 min period using a BioTek HT fluorescence microplate reader (BioTek Instruments, Inc., Winooski, Vt.). Velocity of each reaction was calculated and data was fit to a dose response curve using GraphPad Prism® software (GraphPad Software, Inc., La Jolla, Calif.). EC50 is the effective concentration of compound which causes 50% activation of S. aureus ClpP in the foregoing BODIPY FL casein assay.

S. pyogenes ATCC 700294 = experiment: Minimal inhibitory concentration, microbroth dilution; type: cell-based
Outline: (§2)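 Twofold serial dilutions in broth per CLSI M7-A7 microbroth dilution, incubated aerobically overnight at 37° C. MIC read visually as lowest concentration preventing bacterial growth.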

[2] = Cytotoxicity assay, CellTiter-Glo cell viability; type: cell-based; conditions: African green monkey
Outline: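 Vero cells seeded overnight at 37 °C in DMEM with 10% FBS, then exposed to serial dilutions of compound for 72 h. Viability read by CellTiter-Glo luminescence; IC50 from duplicates, given as the range of two independent experiments.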

Sa-ClpP [3] = target: T1, Sa-ClpP; experiment: ClpP activation, EnzCheck Protease Assay with Bodipy-FL casein (second described method); type: biochemical, S. aureus; conditions: read-out: ClpP Activation EC50 (converted)
Outline: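 Sa-ClpP (2 μM in master mix) with Bodipy-FL casein (2 μM in master mix) in Tris-HCl pH 8.0, 0.01% Triton X-100, compounds in 2% DMSO, triplicate. Fluorescence (ex 485/em 520 nm) followed 30 min; degradation slopes normalized to ADEP4 and DMSO controls, EC50 and % activation by four-parameter fit.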

S. aureus NRS70 = experiment: Minimal inhibitory concentration, microbroth dilution; type: cell-based; conditions: Staphylococcus aureus, NRS70; read-out: Minimal Inhibitory Concentration S. aureus NRS70
Outline: as §1

S. aureus USA 300 = experiment: as above; type: cell-based; conditions: Staphylococcus aureus, USA300; read-out: Minimal Inhibitory Concentration S. aureus USA 300
Outline: as §1

S. pneumoniae R6 = experiment: as above; type: cell-based; conditions: Streptococcus pneumoniae, R6; read-out: Minimal Inhibitory Concentration S. pneumoniae R6
Outline: as §2

[4] = Streptococcus pneumoniae, DAW27, read-out: Minimal Inhibitory Concentration S. pneumoniae DAW27
[5] = Staphylococcus aureus, ATCC29213, read-out: Minimal Inhibitory Concentration S. aureus ATCC 29213
[6] = Bacillus subtilis, ATCC23857, read-out: Minimal Inhibitory Concentration B. subtilis ATCC 23857
[7] = Streptococcus pyogenes, ATCC700294, read-out: Minimal Inhibitory Concentration S. pyogenes ATCC 700294
[8] = Vero cells, 72 hours, read-out: Cytotoxicity IC50
[9] = Streptococcus pneumoniae, DAW27; read-out: Minimal Inhibitory Concentration S. pneumoniae DAW27

T1 sequence (Q2G036 whole entry): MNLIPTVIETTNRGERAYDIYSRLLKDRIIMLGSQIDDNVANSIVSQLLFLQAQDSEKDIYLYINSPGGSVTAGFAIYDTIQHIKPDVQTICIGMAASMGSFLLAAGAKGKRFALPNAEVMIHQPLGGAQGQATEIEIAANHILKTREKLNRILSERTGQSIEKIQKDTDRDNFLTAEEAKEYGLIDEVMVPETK
T2 sequence (Q2G036 whole entry): as above

| SMILES | Minimal Inhibitory Concentration E. coli K12ΔtolC (E. coli K12ΔtolC) | IC50 (Sa-ClpP [1]) | EC50 (S. aureus ClpP (Sa-ClpP)) | IC50 at 72 h [2, 8] | IC50 at 72 h [2] | EC50 (Sa-ClpP [3]) | other results |
| --- | --- | --- | --- | --- | --- | --- | --- |
| O=C(N[C@H](CO)[C@H](O)c1ccc([N+](=O)[O-])cc1)C(Cl)Cl [Chloroamphenicol, chloramphenicol, reference compound] | 0.78 µM | – | – | – | – | – | Minimal Inhibitory Concentration S. aureus USA 300 ΔClpP (S. aureus USA 300 ΔClpP): 6.3 µM |
| C[C@@H]1C[C@H]2C(=O)OC[C@H](NC(=O)[C@H](Cc3ccccc3)NC(=O)Nc3ccccc3)C(=O)N3CCC[C@H]3C(=O)N3CCCC[C@H]3C(=O)N[C@@H](C)C(=O)N2C1 [Compound 1, (S)—N-((2R,6S,8aS,14aS,20S,23aS)-2,6-Dimethyl-5,8,14,19,23-Pentaoxooctadecahydro-1H,5H,14H,19H-Pyrido[2,1-I]Dipyrrolo[2,1-C:2′,1′-L][1]Oxa[4,7,10,13]Tetraazacyclohexadecin-20-Yl)-3-Phenyl-2-(3-Phenylureido)Propanamide] | 200 µM | 6.72 ± 0.4 µM | 3.6 ± 0.4 µM | > 100 µM | – | – | MIC (S. pneumoniae DAW27; [4]): 0.78 µM (≈ 0.58 µg/mL); MIC (S. aureus ATCC 29213; [5]): 6.25 µM (≈ 4.65 µg/mL); MIC (E. faecails ATCC 33186): 3.13 µM (≈ 2.33 µg/mL); MIC (B. subtilis ATCC 23857; [6]): 1.56 µM (≈ 1.16 µg/mL); MIC (S. pyogenes ATCC 700294; [7]): 1.56 µM (≈ 1.16 µg/mL) |
| C[C@@H]1C[C@H]2C(=O)OC[C@H](NC(=O)[C@H](Cc3ccccc3)NC(=O)Nc3ccc(OC(F)(F)F)cc3)C(=O)N3CCC[C@H]3C(=O)N3CCCC[C@H]3C(=O)N[C@@H](C)C(=O)N2C1 [Compound 2, (S)—N-((2R,6S,8aS,14aS,20S,23aS)-2,6-Dimethyl-5,8,14,19,23-Pentaoxooctadecahydro-1H,5H,14H,19H-Pyrido[2,1-I]Dipyrrolo[2,1-C:2′,1′-L][1]Oxa[4,7,10,13]Tetraazacyclohexadecin-20-Yl)-3-Phenyl-2-(3-(4-(Trifluoromethoxy)Phenyl)Ureido)Propanamide] | 12.5 µM | 7.66 ± 0.3 µM | 2.6 ± 0.4 µM | – | 88.3 ± 15.2 µM | 0.5 µM | – |
| CCc1ccc(NC(=O)N[C@@H](Cc2ccccc2)C(=O)N[C@H]2COC(=O)[C@@H]3C[C@@H](C)CN3C(=O)[C@H](C)NC(=O)[C@@H]3CCCCN3C(=O)[C@@H]3CCCN3C2=O)cc1 [Compound 4, (S)—N-((2R,6S,8aS,14aS,20S,23aS)-2,6-Dimethyl-5,8,14,19,23-Pentaoxooctadecahydro-1H,5H,14H,19H-Pyrido[2,1-1]Dipyrrolo[2,1-C:2′,1′-L][1]Oxa[4,7,10,13]Tetraazacyclohexadecin-20-Yl)-2-(3-(4-Ethylphenyl)Ureido)-3-Phenylpropanamide] | 25 µM | 29 ± 2.1 µM | 1.4 ± 0.1 µM | – | 73.7 ± 8.4 µM | 5.5 µM | – |
| COc1cccc(NC(=O)N[C@@H](Cc2ccccc2)C(=O)N[C@H]2COC(=O)[C@@H]3C[C@@H](C)CN3C(=O)[C@H](C)NC(=O)[C@@H]3CCCCN3C(=O)[C@@H]3CCCN3C2=O)c1 [Compound 8, (S)—N-((2R,6S,8aS,14aS,20S,23aS)-2,6-Dimethyl-5,8,14,19,23-Pentaoxooctadecahydro-1H,5H,14H,19H-Pyrido[2,1-I]Dipyrrolo[2,1-C:2′,1′-L][1]Oxa[4,7,10,13]Tetraazacyclohexadecin-20-Yl)-2-(3-(3-Methoxyphenyl)Ureido)-3-Phenylpropanamide] | 200 µM | 16.3 ± 0.8 µM | 3 ± 0.4 µM | – | > 100 µM | 1.3 µM | – |
| C[C@@H]1C[C@H]2C(=O)OC[C@H](NC(=O)[C@H](Cc3ccccc3)NC(=O)Nc3ccc4ccn(C)c4c3)C(=O)N3CCC[C@H]3C(=O)N3CCCC[C@H]3C(=O)N[C@@H](C)C(=O)N2C1 [Compound 12, (S)—N-((2R,6S,8aS,14aS,20S,23aS)-2,6-Dimethyl-5,8,14,19,23-Pentaoxooctadecahydro-1H,5H,14H,19H-Pyrido[2,1-I]Dipyrrolo[2,1-C:2′,1′-L][1]Oxa[4,7,10,13]Tetraazacyclohexadecin-20-Yl)-2-(3-(1-Methyl-1H-Indol-6-Yl)Ureido)-3-Phenylpropanamide] | – | 6.81 ± 0.4 µM | 3.2 ± 0.5 µM | 90 ± 7.6 µM | – | – | MIC (S. pneumoniae DAW27; [4]): 0.3 µM (≈ 0.239 µg/mL); MIC (S. aureus ATCC 29213; [5]): 2.5 µM (≈ 1.99 µg/mL); MIC (E. faecails ATCC 33186): 1.25 µM (≈ 0.996 µg/mL); MIC (B. subtilis ATCC 23857; [6]): 2.5 µM (≈ 1.99 µg/mL); MIC (S. pyogenes ATCC 700294; [7]): 0.6 µM (≈ 0.478 µg/mL) |
| C[C@H]1C[C@H]2C(=O)O[C@@H](C)[C@H](NC(=O)[C@H](Cc3cc(F)cc(F)c3)NC(=O)Nc3ccc(OC(F)(F)F)cc3)C(=O)N3CCC[C@H]3C(=O)N3CCCC[C@H]3C(=O)N[C@@H](C)C(=O)N2C1 [Compound 22, (S)-3-(3,5-Difluorophenyl)-2-(3-(4-(Trifluoromethoxy)Phenyl)Ureido)-N-((2R,6S,8aS,14aS,20S,21S,23aS)-2,6,21-Trimethyl-5,8,14,19,23-Pentaoxooctadecahydro-1H,5H,14H,19H-Pyrido[2,1-I]Dipyrrolo[2,1-C:2′,1′-L][1]Oxa[4,7,10,13]Tetraazacyclohexadecin-20-Yl)Propanamide] | – | 8.9 ± 0.3 µM | 3.6 ± 0.4 µM | 52.3 ± 7.7 µM | – | 0.32 µM | – |
| C[C@H]1CC2C(=O)O[C@@H](C)[C@H](NC(=O)[C@H](Cc3cc(F)cc(F)c3)NC(=O)Nc3ccc(OC(F)(F)F)cc3)C(=O)N3CCCC3C(=O)N(C)[C@@H]([C@H](C)O)C(=O)N[C@@H](C)C(=O)N2C1 (stereo partly drawn) [Compound 36, (S)-3-(3,5-Difluorophenyl)-N-((2S,6S,9S,11aS,17S,18S,20aS)-9-((S)-1-Hydroxyethyl)-2,6,10,18-Tetramethyl-5,8,11,16,20-Pentaoxohexadecahydro-1H,5H,16H-Dipyrrolo[2,1-C:2′,1′-L][1]Oxa[4,7,10,13]Tetraazacyclohexadecin-17-Yl)-2-(3-(4-(Trifluoromethoxy)Phenyl)Ureido)Propanamide] | – | – | – | – | – | – | MIC (S. aureus ATCC 29213; Staphylococcus aureus, ATCC29213; read-out: Minimal Inhibitory Concentration S. aureus ATCC 29213): 0.1 µM (≈ 0.0882 µg/mL); MIC (S. aureus NRS70): 0.05 µM (≈ 0.0441 µg/mL); MIC (S. aureus USA 300): 0.1 µM (≈ 0.0882 µg/mL); MIC (B. subtilis ATCC 23857; Bacillus subtilis, ATCC23857; read-out: Minimal Inhibitory Concentration B. subtilis ATCC 23857): 0.1 µM (≈ 0.0882 µg/mL); Minimal Inhibitory Concentration S. aureus USA 300 ΔClpP (S. aureus USA 300 ΔClpP): 50 µM; MIC (S. pyogenes ATCC 700294; Streptococcus pyogenes, ATCC700294; read-out: Minimal Inhibitory Concentration S. pyogenes ATCC 700294): 0.2 µM (≈ 0.176 µg/mL); MIC (S. pneumoniae R6): 0.024 µM (≈ 0.0212 µg/mL) |
| NC[C@H]1O[C@H](O[C@H]2[C@H](O)[C@@H](O[C@H]3O[C@H](CO)[C@@H](O)[C@H](N)[C@H]3O)[C@H](N)C[C@@H]2N)[C@H](O)[C@@H](O)[C@@H]1O [Kanamycin, kanamycin, reference compound] | 0.4 µM | – | – | – | – | – | MIC (S. pneumoniae DAW27; [9]): 25 µM (≈ 12.1 µg/mL) |
| CN(C)[C@@H]1C(O)=C(C(N)=O)C(=O)[C@@]2(O)C(O)=C3C(=O)c4c(O)cccc4[C@@](C)(O)[C@H]3C[C@@H]12 [Tetracycline, tetracycline, reference compound] | 12.5 µM | – | – | – | – | – | MIC (S. pneumoniae DAW27; [9]): 0.1 µM (≈ 0.0444 µg/mL) |
